Patent publication US6737383B1, “Herbicidal oxadiazolidines” (priority 1999, dated 2004)

Experiments:
blackgrass = test: Test B pre/postemergence blackgrass; assay type: in vivo, Alopecurus myosuroides
Method in brief: (§1)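 Herbicidal effect was estimated by eye on a ten-point control scale after plants spent twelve to sixteen days in a greenhouse following soil or foliar treatment. Foliar sprays targeted plants at one to four leaves; all doses were formulated in a non-phytotoxic solvent with surfactant.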

giant foxtail = test: Test B pre/postemergence giant foxtail; assay type: in vivo, Setaria faberii
Method in brief: as §1

wheat = test: Test B pre/postemergence wheat; assay type: in vivo, Triticum aestivum
Method in brief: as §1

purple nutsedge = test: Test B pre/postemergence purple nutsedge; assay type: in vivo, Cyperus rotundus
Method in brief: as §1

[1] = Postemergence, Rate 62 g/ha, scale 0 to 10, 0 is no effect, 10 is complete control
[2] = Postemergence, Rate 250 g/ha, scale 0 to 10, 0 no effect, 10 complete control
[3] = Preemergence, Rate 62 g/ha, scale 0 to 10, 0 is no effect, 10 is complete control
[4] = Preemergence, Rate 125 g/ha, scale 0 to 10 (0 no effect, 10 complete control)
[5] = Preemergence, Rate 250 g/ha, scale of 0 to 10 where 0 is no effect and 10 is complete control
[6] = Preemergence, Rate 500 g/ha, scale 0 (no effect) to 10 (complete control)
[7] = Rate 125 g/ha, Postemergence, scale 0 to 10, 0 no effect, 10 complete control
[8] = Rate 500 g/ha, Postemergence, 0 to 10 scale (0 no effect, 10 complete control)
[9] = Postemergence, Rate 125 g/ha, scale 0 to 10, 0 is no effect, 10 is complete control
[10] = Preemergence, Rate 62 g/ha, scale 0 to 10 (0 no effect, 10 complete control)
[11] = Preemergence, Rate 500 g/ha, scale of 0 to 10 where 0 is no effect and 10 is complete control
[12] = Rate 62 g/ha, Postemergence, scale of 0 to 10 where 0 is no effect and 10 is complete control
[13] = Rate 500 g/ha, Postemergence, scale 0 to 10, 0 no effect, 10 complete control
[14] = Postemergence, Rate 250 g/ha, scale 0 to 10, 0 is no effect, 10 is complete control
[15] = Postemergence, Rate 125 g/ha, scale of 0 to 10 where 0 is no effect and 10 is complete control
[16] = Preemergence, Rate 62 g/ha, scale of 0 to 10 where 0 is no effect and 10 is complete control
[17] = Rate 125 g/ha, Postemergence, scale 0 to 10
[18] = Rate 125 g/ha, Preemergence, scale of 0 to 10 where 0 is no effect and 10 is complete control

CC(C)N(C(=O)n1oc(=O)n(-c2c(Cl)cccc2Cl)c1=O)c1ccc(F)cc1 [Compound 19]
Blackgrass plant response rating (blackgrass; [1]): 0 | Blackgrass plant response rating (blackgrass; [2]): 0 | Plant response rating, Blackgrass (blackgrass; [3]): 0 | Plant response rating, Blackgrass (blackgrass; [4]): 2 | Plant response rating, Blackgrass (blackgrass; [5]): 2 | Blackgrass plant response rating (blackgrass; [6]): 3 | Blackgrass plant response rating (blackgrass; [7]): 0 | Blackgrass plant response rating (blackgrass; [8]): 2 | Giant foxtail plant response rating (giant foxtail; [1]): 0 | Giant foxtail plant response rating (giant foxtail; [2]): 0 | Plant response rating, Giant foxtail (giant foxtail; [3]): 0 | Plant response rating, Giant foxtail (giant foxtail; [4]): 2 | Plant response rating, Giant foxtail (giant foxtail; [5]): 4 | Giant foxtail plant response rating (giant foxtail; [6]): 5 | Giant foxtail plant response rating (giant foxtail; [7]): 0 | Giant foxtail plant response rating (giant foxtail; [8]): 1 | Wheat plant response rating (wheat; [1]): 0 | Wheat plant response rating (wheat; [2]): 0 | Plant response rating, Wheat (wheat; [3]): 0 | Plant response rating, Wheat (wheat; [4]): 0 | Plant response rating, Wheat (wheat; [5]): 0 | Wheat plant response rating (wheat; [6]): 0 | Wheat plant response rating (wheat; [7]): 0 | Nutsedge plant response rating (purple nutsedge; [1]): 0 | Nutsedge plant response rating (purple nutsedge; [2]): 0 | Plant response rating, Nutsedge (purple nutsedge; [3]): 0 | Plant response rating, Nutsedge (purple nutsedge; [4]): 0 | Plant response rating, Nutsedge (purple nutsedge; [5]): 0 | Nutsedge plant response rating (purple nutsedge; [6]): 0 | Nutsedge plant response rating (purple nutsedge; [7]): 0 | Nutsedge plant response rating (purple nutsedge; [8]): 0

Cc1cccc(C(C)(C)C)c1-n1c(=O)on(C(=O)N(c2ccc(F)cc2)C(C)C)c1=O [Compound 359]
Plant response rating, Blackgrass (blackgrass; [9]): 0 | Plant response rating, Blackgrass (blackgrass; [10]): 0 | Blackgrass plant response rating (0 to 10 scale) (blackgrass; Preemergence, Rate 125 g/ha): 0 | Blackgrass plant response rating (blackgrass; [5]): 0 | Blackgrass plant response rating (blackgrass; [11]): 0 | Blackgrass plant response rating (blackgrass; [12]): 0 | Plant response rating, Blackgrass (blackgrass; Rate 250 g/ha, Postemergence, scale of 0 to 10 where 0 is no effect and 10 is complete control): 0 | Plant response rating, Blackgrass (blackgrass; [13]): 2 | Plant response rating, Giant foxtail (giant foxtail; [9]): 0 | Plant response rating, Giant foxtail (giant foxtail; [10]): 0 | Giant foxtail plant response rating (0 to 10 scale) (giant foxtail; Preemergence, Rate 125 g/ha): 0 | Giant foxtail plant response rating (giant foxtail; [5]): 0 | Giant foxtail plant response rating (giant foxtail; [11]): 0 | Giant foxtail plant response rating (giant foxtail; [12]): 0 | Plant response rating, Giant foxtail (giant foxtail; [13]): 0 | Plant response rating, Wheat (wheat; [9]): 0 | Plant response rating, Wheat (wheat; [10]): 0 | Wheat plant response rating (0 to 10 scale) (wheat; Preemergence, Rate 125 g/ha): 0 | Wheat plant response rating (wheat; [5]): 0 | Wheat plant response rating (wheat; [11]): 0 | Wheat plant response rating (wheat; [12]): 0 | Plant response rating, Wheat (wheat; [13]): 2 | Plant response rating, Nutsedge (purple nutsedge; [9]): 0 | Plant response rating, Nutsedge (purple nutsedge; [10]): 0 | Nutsedge plant response rating (0 to 10 scale) (purple nutsedge; Preemergence, Rate 125 g/ha): 0 | Nutsedge plant response rating (purple nutsedge; [5]): 0 | Nutsedge plant response rating (purple nutsedge; [11]): 0 | Nutsedge plant response rating (purple nutsedge; [12]): 0 | Plant response rating, Nutsedge (purple nutsedge; [13]): 0

CCOc1nc(C(F)(F)F)c(Cn2c(=O)on(C(=O)N(c3ccc(F)cc3)C(C)C)c2=O)s1 [Compound 381]
Plant response rating, Blackgrass (blackgrass; [9]): 0 | Plant response rating, Blackgrass (blackgrass; [14]): 0 | Plant response rating, Blackgrass (blackgrass; [10]): 0 | Blackgrass plant response rating (0 to 10 scale) (blackgrass; Preemergence, Rate 125 g/ha): 0 | Blackgrass plant response rating (blackgrass; [5]): 0 | Blackgrass plant response rating (blackgrass; [11]): 2 | Blackgrass plant response rating (blackgrass; [12]): 0 | Plant response rating, Blackgrass (blackgrass; [13]): 0 | Plant response rating, Giant foxtail (giant foxtail; [9]): 0 | Plant response rating, Giant foxtail (giant foxtail; [14]): 0 | Plant response rating, Giant foxtail (giant foxtail; [10]): 0 | Giant foxtail plant response rating (0 to 10 scale) (giant foxtail; Preemergence, Rate 125 g/ha): 0 | Giant foxtail plant response rating (giant foxtail; [5]): 5 | Giant foxtail plant response rating (giant foxtail; [11]): 9 | Giant foxtail plant response rating (giant foxtail; [12]): 0 | Plant response rating, Giant foxtail (giant foxtail; [13]): 0 | Plant response rating, Wheat (wheat; [9]): 0 | Plant response rating, Wheat (wheat; [14]): 0 | Plant response rating, Wheat (wheat; [10]): 0 | Wheat plant response rating (0 to 10 scale) (wheat; Preemergence, Rate 125 g/ha): 0 | Wheat plant response rating (wheat; [5]): 0 | Wheat plant response rating (wheat; [11]): 0 | Wheat plant response rating (wheat; [12]): 0 | Plant response rating, Wheat (wheat; [13]): 0 | Plant response rating, Nutsedge (purple nutsedge; [9]): 0 | Plant response rating, Nutsedge (purple nutsedge; [14]): 0 | Plant response rating, Nutsedge (purple nutsedge; [10]): 0 | Nutsedge plant response rating (0 to 10 scale) (purple nutsedge; Preemergence, Rate 125 g/ha): 0 | Nutsedge plant response rating (purple nutsedge; [5]): 0 | Nutsedge plant response rating (purple nutsedge; [11]): 0 | Nutsedge plant response rating (purple nutsedge; [12]): 0 | Plant response rating, Nutsedge (purple nutsedge; [13]): 0

CCN(CC)C(=O)n1oc(=O)n(-c2ccccc2C)c1=O [Compound 364]
Plant response rating, Blackgrass (blackgrass; [9]): 0 | Plant response rating, Blackgrass (blackgrass; [14]): 0 | Plant response rating, Blackgrass (blackgrass; [10]): 0 | Blackgrass plant response rating (0 to 10 scale) (blackgrass; Preemergence, Rate 125 g/ha): 0 | Blackgrass plant response rating (blackgrass; [5]): 1 | Blackgrass plant response rating (blackgrass; [11]): 4 | Blackgrass plant response rating (blackgrass; [12]): 0 | Plant response rating, Blackgrass (blackgrass; [13]): 2 | Plant response rating, Giant foxtail (giant foxtail; [9]): 3 | Plant response rating, Giant foxtail (giant foxtail; [14]): 6 | Plant response rating, Giant foxtail (giant foxtail; [10]): 3 | Giant foxtail plant response rating (0 to 10 scale) (giant foxtail; Preemergence, Rate 125 g/ha): 6 | Giant foxtail plant response rating (giant foxtail; [5]): 9 | Giant foxtail plant response rating (giant foxtail; [11]): 10 | Giant foxtail plant response rating (giant foxtail; [12]): 0 | Plant response rating, Giant foxtail (giant foxtail; [13]): 8 | Plant response rating, Wheat (wheat; [9]): 0 | Plant response rating, Wheat (wheat; [14]): 0 | Plant response rating, Wheat (wheat; [10]): 0 | Wheat plant response rating (0 to 10 scale) (wheat; Preemergence, Rate 125 g/ha): 0 | Wheat plant response rating (wheat; [5]): 0 | Wheat plant response rating (wheat; [11]): 0 | Wheat plant response rating (wheat; [12]): 0 | Plant response rating, Wheat (wheat; [13]): 0 | Plant response rating, Nutsedge (purple nutsedge; [9]): 0 | Plant response rating, Nutsedge (purple nutsedge; [14]): 0 | Plant response rating, Nutsedge (purple nutsedge; [10]): 0 | Nutsedge plant response rating (0 to 10 scale) (purple nutsedge; Preemergence, Rate 125 g/ha): 0 | Nutsedge plant response rating (purple nutsedge; [5]): 0 | Nutsedge plant response rating (purple nutsedge; [12]): 0 | Plant response rating, Nutsedge (purple nutsedge; [13]): 0

CC(C)N(C(=O)n1oc(=O)n(-c2cccc3c2CCCC3)c1=O)c1ccc(F)cc1 [Compound 90]
Blackgrass plant response rating (blackgrass; [1]): 0 | Blackgrass plant response rating (blackgrass; [15]): 0 | Blackgrass plant response rating (blackgrass; [2]): 0 | Blackgrass plant response rating (blackgrass; [10]): 0 | Plant response rating, Blackgrass (blackgrass; [4]): 0 | Plant response rating, Blackgrass (blackgrass; [5]): 3 | Blackgrass plant response rating (blackgrass; [6]): 6 | Blackgrass plant response rating (blackgrass; [13]): 0 | Giant foxtail plant response rating (giant foxtail; [1]): 0 | Giant foxtail plant response rating (giant foxtail; [15]): 0 | Giant foxtail plant response rating (giant foxtail; [2]): 1 | Giant foxtail plant response rating (giant foxtail; [10]): 4 | Plant response rating, Giant foxtail (giant foxtail; [4]): 8 | Plant response rating, Giant foxtail (giant foxtail; [5]): 9 | Giant foxtail plant response rating (giant foxtail; [6]): 10 | Giant foxtail plant response rating (giant foxtail; [13]): 1 | Wheat plant response rating (wheat; [1]): 0 | Wheat plant response rating (wheat; [15]): 0 | Wheat plant response rating (wheat; [10]): 0 | Plant response rating, Wheat (wheat; [4]): 0 | Plant response rating, Wheat (wheat; [5]): 0 | Wheat plant response rating (wheat; [6]): 0 | Plant response rating, Wheat (wheat; Rate 250 g/ha, Postemergence, scale 0 to 10, 0 is no effect, 10 is complete control): 0 | Wheat plant response rating (wheat; [13]): 0 | Nutsedge plant response rating (purple nutsedge; [1]): 0 | Nutsedge plant response rating (purple nutsedge; [15]): 0 | Nutsedge plant response rating (purple nutsedge; [2]): 0 | Nutsedge plant response rating (purple nutsedge; [10]): 0 | Plant response rating, Nutsedge (purple nutsedge; [4]): 0 | Plant response rating, Nutsedge (purple nutsedge; [5]): 0 | Nutsedge plant response rating (purple nutsedge; [6]): 0 | Nutsedge plant response rating (purple nutsedge; [13]): 0

CON=C(Cn1c(=O)on(C(=O)N(c2ccc(F)cc2)C(C)C)c1=O)C(F)(F)F [Compound 227]
Blackgrass plant response rating (blackgrass; [16]): 2 | Blackgrass plant response rating (blackgrass; [5]): 10 | Plant response rating, Blackgrass (blackgrass; [11]): 10 | Blackgrass plant response rating (blackgrass; [12]): 0 | Blackgrass plant response rating (blackgrass; [17]): 2 | Blackgrass plant response rating (blackgrass; [18]): 5 | Plant response rating (0 to 10; 0 is no effect, 10 is complete control), Blackgrass (blackgrass; Rate 250 g/ha, Postemergence): 7 | Blackgrass plant response rating (blackgrass; [13]): 7 | Giant foxtail plant response rating (giant foxtail; [16]): 9 | Giant foxtail plant response rating (giant foxtail; [5]): 10 | Plant response rating, Giant foxtail (giant foxtail; [11]): 10 | Giant foxtail plant response rating (giant foxtail; [12]): 0 | Giant foxtail plant response rating (giant foxtail; [17]): 0 | Giant foxtail plant response rating (giant foxtail; [18]): 10 | Plant response rating (0 to 10; 0 is no effect, 10 is complete control), Giant foxtail (giant foxtail; Rate 250 g/ha, Postemergence): 0 | Giant foxtail plant response rating (giant foxtail; [13]): 0 | Wheat plant response rating (wheat; [16]): 0 | Wheat plant response rating (wheat; [5]): 0 | Plant response rating, Wheat (wheat; [11]): 0 | Wheat plant response rating (wheat; [12]): 0 | Wheat plant response rating (wheat; [17]): 0 | Wheat plant response rating (wheat; [18]): 0 | Plant response rating (0 to 10; 0 is no effect, 10 is complete control), Wheat (wheat; Rate 250 g/ha, Postemergence): 3 | Wheat plant response rating (wheat; [13]): 5 | Nutsedge plant response rating (purple nutsedge; [16]): 0 | Nutsedge plant response rating (purple nutsedge; [5]): 0 | Nutsedge plant response rating (purple nutsedge; [12]): 0 | Nutsedge plant response rating (purple nutsedge; [17]): 0 | Nutsedge plant response rating (purple nutsedge; [18]): 0 | Plant response rating (0 to 10; 0 is no effect, 10 is complete control), Nutsedge (purple nutsedge; Rate 250 g/ha, Postemergence): 0 | Nutsedge plant response rating (purple nutsedge; [13]): 0
